In ChEMBL document CHEMBL4725331, “An investigative study of antitumor properties of a novel thiazolo[4,5-d]pyrimidine small molecule revealing superior antitumor activity with CDK1 selectivity and potent pro-apoptotic properties” (Bioorg Med Chem, 2020):

How the values were obtained:
RXF 393 = assay: Antiproliferative activity against human RXF 393 cells assessed as inhibition of cell growth at 10 uM measured after 48 hrs by SRB assay relative to control; assay type: functional
HOP-62 = assay: Antiproliferative activity against human HOP-62 cells assessed as inhibition of cell growth measured after 48 hrs by SRB assay; assay type: functional
UO-31 = assay: Antiproliferative activity against human UO-31 cells assessed as inhibition of cell growth measured after 48 hrs by SRB assay; assay type: functional
MCF7 = assay: Antiproliferative activity against human MCF7 cells assessed as inhibition of cell growth measured after 48 hrs by SRB assay; assay type: functional
WI-38 [1] = assay: Induction of apoptosis in human WI-38 cells assessed as late apoptotic cells at IC50 incubated for 48 hrs by annexin-V FITC and propidium iodide staining based flow cytometry analysis (reference value: 0.29 %); assay type: cell-based; conditions: wi-38, 48 h
RPMI-8226 = assay: Antiproliferative activity against human RPMI-8226 cells assessed as inhibition of cell growth at 10 uM measured after 48 hrs by SRB assay relative to control; assay type: functional
SK-MEL-5 = assay: Antiproliferative activity against human SK-MEL-5 cells assessed as inhibition of cell growth at 10 uM measured after 48 hrs by SRB assay relative to control; assay type: functional
786-0 = assay: Antiproliferative activity against human 786-0 cells assessed as inhibition of cell growth measured after 48 hrs by SRB assay; assay type: functional
OVCAR-5 = assay: Antiproliferative activity against human OVCAR-5 cells assessed as inhibition of cell growth measured after 48 hrs by SRB assay; assay type: functional
COLO 205 = assay: Antiproliferative activity against human COLO 205 cells assessed as inhibition of cell growth at 10 uM measured after 48 hrs by SRB assay relative to control; assay type: functional
HCT-116 [2] = assay: Induction of apoptosis in human HCT116 cells assessed as up regulation of cytochrome C expression by RT-PCR analysis relative to untreated control; assay type: functional
KM12 = assay: Antiproliferative activity against human KM12 cells assessed as inhibition of cell growth measured after 48 hrs by SRB assay; assay type: functional
SF-539 = assay: Antiproliferative activity against human SF-539 cells assessed as inhibition of cell growth measured after 48 hrs by SRB assay; assay type: functional
WI-38 [3] = assay: Induction of apoptosis in human WI-38 cells assessed as early apoptotic cells at IC50 incubated for 48 hrs by annexin-V FITC and propidium iodide staining based flow cytometry analysis (reference value: 0.39 %); assay type: cell-based; conditions: wi-38, 48 h
T47D = assay: Antiproliferative activity against human T47D cells assessed as inhibition of cell growth measured after 48 hrs by SRB assay; assay type: functional
SF-268 = assay: Antiproliferative activity against human SF-268 cells assessed as inhibition of cell growth at 10 uM measured after 48 hrs by SRB assay relative to control; assay type: functional
NCI-H460 = assay: Antiproliferative activity against human NCI-H460 cells assessed as inhibition of cell growth measured after 48 hrs by SRB assay; assay type: functional
SW-620 = assay: Antiproliferative activity against human SW-620 cells assessed as inhibition of cell growth at 10 uM measured after 48 hrs by SRB assay relative to control; assay type: functional
OVCAR-3 = assay: Antiproliferative activity against human OVCAR-3 cells assessed as inhibition of cell growth measured after 48 hrs by SRB assay; assay type: functional
HCT-116 [4] = assay: Induction of apoptosis in human HCT-116 cells assessed as early apoptotic cells at IC50 incubated for 48 hrs by annexin-V FITC and propidium iodide staining based flow cytometry analysis (reference value: 1.67 %); assay type: functional
TK-10 = assay: Antiproliferative activity against human TK-10 cells assessed as inhibition of cell growth at 10 uM measured after 48 hrs by SRB assay relative to control; assay type: functional
WI-38 [5] = assay: Cytotoxicity against human WI-38 cells assessed as reduction in cell viability after 48 hrs by MTT assay; assay type: cell-based; conditions: WI-38, 48 h
HCT-116 [6] = assay: Cell cycle arrest in human HCT-116 cells assessed as accumulation in S phase phase at IC50 concentration incubated for 48 hrs by propidium iodide staining based flow cytometry analysis (reference value: 41.34 %); assay type: functional
PC-3 = assay: Antiproliferative activity against human PC-3 cells assessed as inhibition of cell growth at 10 uM measured after 48 hrs by SRB assay relative to control; assay type: functional
DU-145 = assay: Antiproliferative activity against human DU-145 cells assessed as inhibition of cell growth at 10 uM measured after 48 hrs by SRB assay relative to control; assay type: functional
UACC-257 = assay: Antiproliferative activity against human UACC-257 cells assessed as inhibition of cell growth at 10 uM measured after 48 hrs by SRB assay relative to control; assay type: functional
HCT-116 [7] = assay: Antiproliferative activity against human HCT-116 cells assessed as inhibition of cell growth at 10 uM measured after 48 hrs by SRB assay relative to control; assay type: functional
HCT-116 [8] = assay: Cell cycle arrest in human HCT-116 cells assessed as accumulation in G2/M phase phase at IC50 concentration incubated for 48 hrs by propidium iodide staining based flow cytometry analysis (reference value: 13.75 %); assay type: functional
BT-549 = assay: Antiproliferative activity against human BT-549 cells assessed as inhibition of cell growth measured after 48 hrs by SRB assay; assay type: functional
SK-MEL-2 = assay: Antiproliferative activity against human SK-MEL-2 cells assessed as inhibition of cell growth at 10 uM measured after 48 hrs by SRB assay relative to control; assay type: functional
HCT-116 [9] = assay: Induction of apoptosis in human HCT-116 cells assessed as necrotic cells at IC50 incubated for 48 hrs by annexin-V FITC and propidium iodide staining based flow cytometry analysis (reference value: 0.51 %); assay type: functional
UACC-62 = assay: Antiproliferative activity against human UACC-62 cells assessed as inhibition of cell growth at 10 uM measured after 48 hrs by SRB assay relative to control; assay type: functional
SN12C = assay: Antiproliferative activity against human SN12C cells assessed as inhibition of cell growth at 10 uM measured after 48 hrs by SRB assay relative to control; assay type: functional
HT-29 = assay: Antiproliferative activity against human HT-29 cells assessed as inhibition of cell growth measured after 48 hrs by SRB assay; assay type: functional
[10] = read-out: LC50 (the source's name)

Work on COc1ccc(-n2c(=S)sc3c(Cl)nc(C)nc32)c(OC)c1 yielded an inhibition at 10 µM (RXF 393) of over 50%, a GI50 (HOP-62) of 2.57 µM and a TGI (HOP-62) of 7.76 µM. It also gave a CC50 (HOP-62; [10]) of 26.9 µM, a GI50 (UO-31) of 3.63 µM and a TGI (UO-31) of 15.5 µM. The CC50 (UO-31; [10]) was 39.8 µM, the GI50 (MCF7) was 3.63 µM and the TGI (MCF7) was 15.5 µM. For the same compound, the CC50 (MCF7; [10]) was 87.1 µM, the Activity (WI-38 [1]) was 2.99% and the inhibition at 10 µM (RPMI-8226) was over 50%. The inhibition at 10 µM (SK-MEL-5) was over 50%, the GI50 (786-0) was 4.47 µM and the TGI (786-0) was 20.4 µM. For the same compound, the CC50 (786-0; [10]) was 81.3 µM, the GI50 (OVCAR-5) was 6.17 µM and the TGI (OVCAR-5) was 20.9 µM. For the same compound, the CC50 (OVCAR-5; [10]) was 53.7 µM, the inhibition at 10 µM (COLO 205) was over 50% and the “fold change (FC)” value (HCT-116 [2]) was 8.02. It also gave a GI50 (KM12) of 3.31 µM, a TGI (KM12) of 11.5 µM and a CC50 (KM12; [10]) of 37.1 µM. The GI50 (SF-539) was 2.09 µM, the TGI (SF-539) was 4.57 µM and the CC50 (SF-539; [10]) was 10 µM. For the same compound, the Activity (WI-38 [3]) was 3.59%, the GI50 (T47D) was 6.46 µM and the TGI (T47D) was 21.9 µM. For the same compound, the CC50 (T47D; [10]) was 56.2 µM, the inhibition at 10 µM (SF-268) was over 50% and the GI50 (NCI-H460) was 3.09 µM. The TGI (NCI-H460) was 9.12 µM, the CC50 (NCI-H460; [10]) was 49 µM and the inhibition at 10 µM (SW-620) was over 50%. For the same compound, the GI50 (OVCAR-3) was 1.78 µM, the TGI (OVCAR-3) was 3.24 µM and the CC50 (OVCAR-3; [10]) was 5.89 µM. It also gave an Activity (HCT-116 [4]) of 5.38%, an inhibition at 10 µM (TK-10) of over 50% and an IC50 (WI-38 [5]) of 21.7 µM. The Activity (HCT-116 [6]) was 30.1%, the inhibition at 10 µM (PC-3) was over 50% and the inhibition at 10 µM (DU-145) was over 50%. The inhibition at 10 µM (UACC-257) was over 50%, the inhibition at 10 µM (HCT-116 [7]) was over 50% and the Activity (HCT-116 [8]) was 29.82%. For the same compound, the GI50 (BT-549) was 2 µM, the TGI (BT-549) was 4.27 µM and the CC50 (BT-549; [10]) was 9.12 µM. For the same compound, the inhibition at 10 µM (SK-MEL-2) was over 50%, the Activity (HCT-116 [9]) was 3.31% and the inhibition at 10 µM (UACC-62) was over 50%. The inhibition at 10 µM (SN12C) was over 50%, the GI50 (HT-29) was 2.4 µM and the TGI (HT-29) was 6.31 µM. The CC50 (HT-29; [10]) was 57.5 µM.
